Data published in ChEMBL document CHEMBL5357001, “Coriaceumins A-D, the First Nitrogen-Containing Crenulide Diterpenoids from the Brown Alga Dictyota coriacea Collected in the East China Sea” (J Nat Prod, 2024).
Calls of active or inactive are those of the source. The calls are words filed in the database; no cut-off is given here.

Experiments:
HL-60 = assay: Cytotoxicity against human HL-60 cells assessed as reduction in cell viability at 20 uM incubated for 3 days by CCK-8 assay; type: functional, cell-based; conditions: time 3.0 day
A549 = assay: Cytotoxicity against human A549 cells assessed as reduction in cell viability at 20 uM incubated for 3 days by CCK-8 assay; type: functional, cell-based; conditions: time 3.0 day
[1] = molecular target: T1, Tyrosine-protein phosphatase non-receptor type 1 (Homo sapiens) (UniProt P18031); assay: Inhibition of recombinant PTP1B (unknown origin) using pNPP as substrate at 20 uM relative to control
T1 sequence (whole entry): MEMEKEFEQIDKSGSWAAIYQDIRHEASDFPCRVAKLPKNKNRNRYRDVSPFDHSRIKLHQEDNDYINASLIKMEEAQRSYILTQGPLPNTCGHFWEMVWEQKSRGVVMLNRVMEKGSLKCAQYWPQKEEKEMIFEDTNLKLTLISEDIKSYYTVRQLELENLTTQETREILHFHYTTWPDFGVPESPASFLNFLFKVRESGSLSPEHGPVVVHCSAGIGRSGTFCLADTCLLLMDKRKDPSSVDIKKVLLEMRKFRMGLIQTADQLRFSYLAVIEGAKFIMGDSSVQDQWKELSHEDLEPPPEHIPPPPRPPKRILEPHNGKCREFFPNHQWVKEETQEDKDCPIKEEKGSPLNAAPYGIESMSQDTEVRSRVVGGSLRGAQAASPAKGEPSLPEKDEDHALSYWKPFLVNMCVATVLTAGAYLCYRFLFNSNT

[2] = molecular target: T2, Tyrosine-protein phosphatase non-receptor type 1 (Homo sapiens, UniProt P18031); assay: Inhibition of recombinant PTP1B (unknown origin) using pNPP as substrate relative to control
T2 sequence (P18031 whole entry): T1 sequence (whole entry)

inhibition [1] | IC50 [2] | Compound | Activity (HL-60) | Activity (A549)
52% | 19 µM | CC(=O)O[C@@H]1C[C@@H](C)[C@@H]2C[C@@H]2C2=C(C(=O)NC2)[C@@H]1[C@H](C)CCC=C(C)C | inactive | inactive
86% | 7.3 µM | CC(C)=CCC[C@@H](C)[C@H]1C2=C(C(=O)OC2)[C@H]2C[C@H]2[C@H](C)C[C@H]1O | inactive | inactive
73% | 13 µM | CC(=O)O[C@@H]1C[C@@H](C)[C@@H]2C[C@@H]2C2=C(CNC2=O)[C@@H]1[C@H](C)CCC=C(C)C | inactive | inactive
47% |  | C=C(C)C(=O)CC[C@@H](C)[C@H]1C2=C(CNC2=O)[C@H]2C[C@H]2[C@H](C)C[C@H]1OC(C)=O | inactive | inactive
38% |  | CCO[C@@H]1C/C=C(\C)CC[C@@H]([C@H](C)CCC=C(C)C)C2=C1C(=O)N[C@@H]2O | inactive | inactive
81% | 9.5 µM | CCO[C@@H]1C/C=C(\C)CC[C@@H]([C@H](C)CCC=C(C)C)C2=C1C(=O)N[C@H]2O | inactive | inactive
40% |  | CC(C)=CCC[C@@H](C)[C@H]1C2=C(C(=O)NC2)[C@H]2C[C@H]2[C@H](C)C[C@H]1O | inactive | inactive
